Results: EPA's ToxRefDB 2

Columns and labels:
rat [1] = conditions: Sub-acute repeat dose toxicity, sprague dawley, Oral, Gavage/Intubation, dose end: 7 day, group: systemic
primate [2] = conditions: Sub-acute repeat dose toxicity, Oral, Gavage/Intubation, dose end: 5 day, group: systemic
rat [3] = conditions: Sub-acute repeat dose toxicity, sprague dawley, Oral, Gavage/Intubation, dose end: 29 day, group: systemic
primate [4] = conditions: Sub-acute repeat dose toxicity; Oral; Gavage/Intubation; dose end: 28 day; group: systemic; systemic / clinical chemistry / cholesterol / cholesterol, direct ldl + systemic / hematology / erythrocyte (rbc) count differential / …
mouse [5] = conditions: Carcinogenicity, other, Oral, Feed, dose end: 18 month, group: systemic
dog [6] = conditions: Subchronic oral toxicity in nonrodent, beagle, Capsule, dose end: 26 week, group: systemic, systemic / in life observation / body weight / body weight gain
rat [7] = conditions: Combined chronic toxicity/carcinogenicity; sprague dawley; Oral; Feed; dose end: 104 week; group: systemic; systemic / clinical chemistry / alanine aminotransferase (alt/sgpt) / alanine aminotransferase (alt/sgpt) + systemic / clinical chemistry / …
rabbit [8] = conditions: Prenatal developmental toxicity study, other, Oral, Gavage/Intubation, dose end: 19 GD
dog [9] = conditions: Chronic toxicity, beagle, Oral, Capsule, dose end: 52 week, group: systemic
rat [10] = conditions: Subchronic oral toxicity in rodents, other, Feed, dose end: 91 day
mouse [11] = conditions: Carcinogenicity, b6c3f1, Oral, Feed, dose end: 24 month, group: systemic
rat [12] = conditions: Subchronic oral toxicity in rodents, wistar, Feed, dose end: 90 day, group: systemic
rat [13] = conditions: Prenatal developmental toxicity study, wistar, Oral, Gavage/Intubation, dose end: 19 GD
rabbit [14] = conditions: Prenatal developmental toxicity study, himalayan, Oral, Gavage/Intubation, dose end: 28 GD
mouse [15] = conditions: Subchronic oral toxicity in rodents, b6c3f1, Feed, dose end: 90 day, group: systemic
rat [16] = conditions: Multigenerational reproductive toxicity study, sprague dawley, Oral, Feed, dose end: 2 generation
rat [17] = conditions: Combined chronic toxicity/carcinogenicity; wistar; Oral; Feed; dose end: 2 year; group: systemic; systemic / pathology microscopic / liver / cytoplasmic alteration + systemic / pathology microscopic / liver / hypertrophy + systemic / …
dog [18] = conditions: Chronic toxicity, beagle, Oral, Feed, dose end: 52 week, group: systemic
dog [19] = conditions: Subchronic oral toxicity in nonrodent, beagle, Feed, dose end: 106 day, group: systemic
[20] = systemic / clinical chemistry / aspartate aminotransferase (ast/sgot) / aspartate aminotransferase (ast/sgot) + systemic / clinical …
[21] = systemic / clinical chemistry / gamma glutamyl transferase (ggt) / gamma glutamyl transferase (ggt) + systemic / pathology microscopic / …
[22] = systemic / hematology / blood clotting / blood clotting - activated partial thromboplastin time + systemic / hematology / fibrinogen / …
[23] = systemic / hematology / blood clotting / blood clotting - activated partial thromboplastin time + systemic / in life observation / food …
[24] = systemic / clinical chemistry / cytochrome p450, nos / cytochrome p450, nos + systemic / in life observation / clinical signs / alopecia + …
[25] = systemic / in life observation / clinical signs / salivation + systemic / organ weight / liver / absolute + systemic / pathology microscopic…
[26] = systemic / pathology microscopic / lung / adenoma + systemic / pathology microscopic / lung / carcinoma + systemic / in life observation / …
[27] = group: developmental, developmental / developmental malformation / bone / hypoplasia + developmental / developmental malformation / trunk / spina bifida
[28] = group: maternal, systemic / in life observation / body weight / body weight gain
[29] = systemic / in life observation / body weight / body weight gain + systemic / in life observation / food consumption / food consumption + …
[30] = group: cholinesterase, cholinesterase / cholinesterase / cholinesterase / cholinesterase (che)
[31] = group: systemic, systemic / clinical chemistry / alkaline phosphatase (alp/alk) / alkaline phosphatase (alp/alk) + systemic / in life observation / clinical …
[32] = systemic / pathology microscopic / liver / degeneration + systemic / pathology microscopic / liver / fatty change + systemic / pathology …
[33] = systemic / pathology microscopic / lymph node / hemorrhage
[34] = systemic / clinical chemistry / triiodothyronine (t3) / triiodothyronine (t3), free
[35] = group: developmental, developmental / developmental malformation / bone / enlarged fontanel + developmental / developmental malformation / bone / incomplete …
[36] = group: maternal, reproductive / reproductive performance / resorptions / resorptions + systemic / in life observation / body weight / body weight + systemic…
[37] = group: developmental, systemic / in life observation / body weight / fetal weight
[38] = group: developmental, systemic / in life observation / body weight / fetal weight + developmental / developmental malformation / bone / full supernumerary + …
[39] = group: maternal, systemic / in life observation / body weight / body weight gain + systemic / in life observation / clinical signs / defecation + systemic / …
[40] = systemic / pathology microscopic / adrenal gland / fatty change + systemic / pathology microscopic / adrenal gland / hypertrophy
[41] = systemic / pathology microscopic / liver / hypertrophy
[42] = group: offspring, systemic / in life observation / body weight / offspring (pup) weight
[43] = group: parental, systemic / organ weight / liver / absolute + systemic / organ weight / liver / relative to body weight + systemic / organ weight / thyroid …
[44] = group: reproductive, reproductive / reproductive performance / dystocia / dystocia
[45] = systemic / organ weight / prostate / nos
[46] = systemic / organ weight / spleen / nos
[47] = systemic / clinical chemistry / [other] / [other] + systemic / clinical chemistry / epoxide hydrolase / epoxide hydrolase + systemic / …
[48] = systemic / clinical chemistry / epoxide hydrolase / epoxide hydrolase + systemic / pathology microscopic / prostate / secretory fluid

Question: Which results are given for CC[C@@H]1C[C@H](N(Cc2cc(C(F)(F)F)cc(C(F)(F)F)c2)C(C)=O)c2cc(C(F)(F)F)ccc2N1C(=O)OC(C)C?
Answer: LOAEL (rat [1]; [20]): > 700 mg/kg/day; NOAEL (rat [1]; [20]): ≥ 700 mg/kg/day; LEL (rat [1]; [21]): 10 mg/kg/day; NEL (rat [1]; [21]): < 10 mg/kg/day; LOAEL (primate [2]; [22]): > 140 mg/kg/day; NOAEL (primate [2]; [22]): ≥ 140 mg/kg/day; LEL (primate [2]; [23]): 10 mg/kg/day; NEL (primate [2]; [23]): < 10 mg/kg/day; LOAEL (rat [3]; [24]): > 125 mg/kg/day; NOAEL (rat [3]; [24]): ≥ 125 mg/kg/day; LEL (rat [3]; [25]): 2 mg/kg/day; NEL (rat [3]; [25]): < 2 mg/kg/day; LEL (primate [4]): 10 mg/kg/day; LOAEL (primate [4]): > 140 mg/kg/day; NEL (primate [4]): < 10 mg/kg/day; NOAEL (primate [4]): ≥ 140 mg/kg/day

Question: CCOC(=O)NCCOc1ccc(Oc2ccccc2)cc1 [Fenoxycarb] was tested. Which LEL (mouse [5]; systemic / pathology gross / spleen / enlarged) did it give?
Answer: 5.75 mg/kg/day

Question: And the NEL (mouse [5]; systemic / pathology gross / spleen / enlarged + systemic / pathology microscopic / liver / carcinoma + systemic / pathology microscopic / …)?
Answer: 1.1 mg/kg/day

Question: And the LOAEL (mouse [5]; [26])?
Answer: 51.5 mg/kg/day

Question: What about the NOAEL (mouse [5]; [26]) of the same compound?
Answer: 5.33 mg/kg/day

Question: What about the LEL (dog [6]) of the same compound?
Answer: 500 mg/kg/day

Question: And the LOAEL (dog [6])?
Answer: 500 mg/kg/day

Question: And the NEL (dog [6])?
Answer: 150 mg/kg/day

Question: What about the NOAEL (dog [6]) of the same compound?
Answer: 150 mg/kg/day

Question: And the LEL (rat [7])?
Answer: 24.7 mg/kg/day

Question: And the LOAEL (rat [7])?
Answer: 24.7 mg/kg/day

Question: And the NEL (rat [7])?
Answer: 8.1 mg/kg/day

Question: What about the NOAEL (rat [7]) of the same compound?
Answer: 8.1 mg/kg/day

Question: And the LEL (rabbit [8]; [27])?
Answer: 300 mg/kg/day

Question: And the LOAEL (rabbit [8]; [27])?
Answer: 300 mg/kg/day

Question: And the NEL (rabbit [8]; [27])?
Answer: 200 mg/kg/day

Question: What about the NOAEL (rabbit [8]; [27]) of the same compound?
Answer: 200 mg/kg/day

Question: And the LEL (rabbit [8]; [28])?
Answer: 200 mg/kg/day

Question: And the LOAEL (rabbit [8]; [28])?
Answer: 200 mg/kg/day

Question: What about the NEL (rabbit [8]; [28]) of the same compound?
Answer: 100 mg/kg/day

Question: And the NOAEL (rabbit [8]; [28])?
Answer: 100 mg/kg/day

Question: And the LEL (dog [9]; systemic / clinical chemistry / phosphorus / phosphorus)?
Answer: 80 mg/kg/day

Question: And the NOAEL (dog [9]; systemic / in life observation / body weight / body weight gain + systemic / clinical chemistry / phosphorus / phosphorus + systemic / organ…)?
Answer: 80 mg/kg/day

Question: What about the LOAEL (dog [9]; [29]) of the same compound?
Answer: 260 mg/kg/day

Question: And the NEL (dog [9]; [29])?
Answer: 25 mg/kg/day

Question: And the LEL (rat [10]; [30])?
Answer: 250 mg/kg/day

Question: And the LOAEL (rat [10]; [30])?
Answer: > 800 mg/kg/day

Question: And the NEL (rat [10]; [30])?
Answer: 80 mg/kg/day

Question: What about the NOAEL (rat [10]; [30]) of the same compound?
Answer: ≥ 800 mg/kg/day

Question: What about the LEL (rat [10]; [31]) of the same compound?
Answer: 80 mg/kg/day

Question: What about the LOAEL (rat [10]; [31]) of the same compound?
Answer: 80 mg/kg/day

Question: What about the NEL (rat [10]; [31]) of the same compound?
Answer: < 80 mg/kg/day

Question: What about the NOAEL (rat [10]; [31]) of the same compound?
Answer: < 80 mg/kg/day

Question: What does the source list for N#CN=C1SCCN1Cc1ccc(Cl)nc1 [Thiacloprid]?
Answer: LOAEL (mouse [11]; [32]): 234 mg/kg/day; NOAEL (mouse [11]; [32]): 5.7 mg/kg/day; LEL (mouse [11]; [33]): 5.7 mg/kg/day; NEL (mouse [11]; [33]): < 5.7 mg/kg/day; LEL (rat [12]; [34]): 1.9 mg/kg/day; NEL (rat [12]; [34]): < 1.9 mg/kg/day; LOAEL (rat [12]; systemic / in life observation / body weight / body weight): 28.6 mg/kg/day; NOAEL (rat [12]; systemic / in life observation / body weight / body weight + systemic / clinical chemistry / cholesterol / cholesterol + systemic / clinical…): 7.3 mg/kg/day; LEL (rat [13]; [35]): 50 mg/kg/day; LOAEL (rat [13]; [35]): 50 mg/kg/day; NEL (rat [13]; [35]): 10 mg/kg/day; NOAEL (rat [13]; [35]): 10 mg/kg/day; LEL (rat [13]; [36]): 50 mg/kg/day; LOAEL (rat [13]; [36]): 50 mg/kg/day; NEL (rat [13]; [36]): 10 mg/kg/day; NOAEL (rat [13]; [36]): 10 mg/kg/day; LEL (rabbit [14]; [37]): 10 mg/kg/day; LOAEL (rabbit [14]; [37]): 10 mg/kg/day; NEL (rabbit [14]; [38]): 2 mg/kg/day; NOAEL (rabbit [14]; [38]): 2 mg/kg/day; LEL (rabbit [14]; [39]): 10 mg/kg/day; LOAEL (rabbit [14]; [39]): 10 mg/kg/day; NEL (rabbit [14]; [39]): 2 mg/kg/day; NOAEL (rabbit [14]; [39]): 2 mg/kg/day; LOAEL (mouse [15]; [40]): 27.2 mg/kg/day; NOAEL (mouse [15]; [40]): < 27.2 mg/kg/day; LEL (mouse [15]; [41]): 19.9 mg/kg/day; NEL (mouse [15]; [41]): < 19.9 mg/kg/day; LEL (rat [16]; [42]): 21 mg/kg/day; LOAEL (rat [16]; [42]): 21 mg/kg/day; NEL (rat [16]; [42]): 3.5 mg/kg/day; NOAEL (rat [16]; [42]): 3.5 mg/kg/day; LOAEL (rat [16]; [43]): 21 mg/kg/day; NEL (rat [16]; [43]): 3.5 mg/kg/day; NOAEL (rat [16]; [43]): 3.5 mg/kg/day; LEL (rat [16]; group: parental, systemic / organ weight / liver / absolute + systemic / organ weight / liver / relative to body weight + systemic / pathology microscopic / …): 21 mg/kg/day; LEL (rat [16]; [44]): 26 mg/kg/day; LOAEL (rat [16]; [44]): 26 mg/kg/day; NEL (rat [16]; [44]): 4.2 mg/kg/day; NOAEL (rat [16]; [44]): 4.2 mg/kg/day; LEL (rat [17]): 2.5 mg/kg/day; LOAEL (rat [17]): 2.5 mg/kg/day; NEL (rat [17]): 1.2 mg/kg/day; NOAEL (rat [17]): 1.2 mg/kg/day; LOAEL (dog [18]; [45]): > 32.2 mg/kg/day; NOAEL (dog [18]; [45]): ≥ 32.2 mg/kg/day; LEL (dog [18]; [46]): 1.39 mg/kg/day; NEL (dog [18]; [46]): < 1.39 mg/kg/day; LOAEL (dog [19]; [47]): 34.7 mg/kg/day; NOAEL (dog [19]; [47]): 8.9 mg/kg/day; LEL (dog [19]; [48]): 8.5 mg/kg/day; NEL (dog [19]; [48]): < 8.5 mg/kg/day
